Measured values as given in ChEMBL document CHEMBL1817597, “Antifungal thiopeptide cyclothiazomycin B1 exhibits growth inhibition accompanying morphological changes via binding to fungal cell wall chitin” (Bioorg Med Chem, 2011).
≈ marks a conversion by molar mass, not a printed value. Calls of active or inactive are those of the source. The rule behind the calls is not given here.

How the values were obtained:
[1] = system: Micrococcus luteus; assay: Antimicrobial activity against Micrococcus luteus IFO 3333 after 24 hrs by broth microdilution method; assay type: functional, organism-based
[2] = system: Bacillus subtilis; assay: Antimicrobial activity against Bacillus subtilis IFO 3007 after 24 hrs by broth microdilution method; assay type: functional, organism-based
[3] = system: Saccharomyces cerevisiae; assay: Antimicrobial activity against Saccharomyces cerevisiae ATCC 7754 after 24 hrs by broth microdilution method; assay type: functional, organism-based
[4] = system: Schizosaccharomyces pombe; assay: Antimicrobial activity against Schizosaccharomyces pombe IFO 0342 after 24 hrs by broth microdilution method; assay type: functional, organism-based
[5] = system: Fusarium oxysporum; assay: Antimicrobial activity against Fusarium oxysporum NBRC 30700 after 24 hrs by broth microdilution method; assay type: functional; settings: NBRC 30700, 24 h
[6] = system: Fusarium sporotrichioides; assay: Antimicrobial activity against Fusarium sporotrichioides NBRC 33236 after 24 hrs by broth microdilution method; assay type: functional; settings: NBRC 33236, 24 h
[7] = system: Aspergillus niger; assay: Antimicrobial activity against Aspergillus niger ATCC 6275 after 24 hrs by broth microdilution method; assay type: functional; settings: ATCC 6275, 24 h
[8] = system: Aspergillus fumigatus; assay: Antimicrobial activity against Aspergillus fumigatus IFO 5840 after 24 hrs by broth microdilution method; assay type: functional; settings: IFO 5840, 24 h
[9] = system: Neurospora sitophila; assay: Antimicrobial activity against Neurospora sitophila DSM 1130 after 24 hrs by broth microdilution method; assay type: functional; settings: DSM 1130, 24 h
[10] = system: Mucor mucedo; assay: Antimicrobial activity against Mucor mucedo IFO 7684 at <6.55 uM after 24 hrs by broth microdilution method; assay type: functional, organism-based
[11] = system: Fusarium oxysporum; assay: Antimicrobial activity against Fusarium oxysporum NBRC 30700 at <6.55 uM after 24 hrs by broth microdilution method; assay type: functional, organism-based
[12] = system: Fusarium solani; assay: Antimicrobial activity against Fusarium solani NBRC 8505 at <6.55 uM after 24 hrs by broth microdilution method; assay type: functional, organism-based
[13] = system: Fusarium avenaceum; assay: Antimicrobial activity against Fusarium avenaceum NBRC 33237 at <6.55 uM after 24 hrs by broth microdilution method; assay type: functional, organism-based
[14] = system: Fusarium graminearum; assay: Antimicrobial activity against Gibberella zeae NBRC 8850 at <6.55 uM after 24 hrs by broth microdilution method; assay type: functional, organism-based
[15] = system: Aspergillus niger; assay: Antimicrobial activity against Aspergillus niger ATCC 6275 at <6.55 uM after 24 hrs by broth microdilution method; assay type: functional, organism-based
[16] = system: Aspergillus fumigatus; assay: Antimicrobial activity against Aspergillus fumigatus IFO 5840 at <6.55 uM after 24 hrs by broth microdilution method; assay type: functional, organism-based
[17] = system: Aspergillus nidulans; assay: Antimicrobial activity against Aspergillus nidulans FGSC A4 at <6.55 uM after 24 hrs by broth microdilution method; assay type: functional, organism-based
[18] = system: Mucor mucedo; assay: Induction of morphological changes in Mucor mucedo IFO 7684 assessed as swelling of hyphae at tips at MIC after 24 hrs by microscopic analysis; assay type: functional, organism-based
[19] = system: THP-1; assay: Cytotoxicity against human THP1 cells up to 65.5 uM after 24 hrs by Alamar blue assay; assay type: cell-based; settings: thp-1, 24 h
[20] = system: LLC-PK1; assay: Cytotoxicity against pig LLC-PK1 cells up to 65.5 uM after 24 hrs by Alamar blue assay; assay type: cell-based, Sus scrofa; settings: llc-pk1, 24 h
[21] = system: NIH3T3; assay: Cytotoxicity against mouse NIH/3T3 cells up to 65.5 uM after 24 hrs by Alamar blue assay; assay type: cell-based; settings: nih3t3, 24 h
[22] = system: Fusarium oxysporum; assay: Antifungal activity against Fusarium oxysporum NBRC 5942 under hyperosmotic shock at 0.026 uM after 2 days by paper disc method; assay type: functional, organism-based
[23] = system: Mucor mucedo; assay: Antifungal activity against Mucor mucedo IFO 7684 under hypoosmotic shock assessed as increase of fragility of organism at 0.026 uM after 24 hrs measured after distilled water treatment for 10 mins by microscopic analysis; assay type: functional, organism-based
[24] = system: Mucor mucedo; assay: Inhibition of chitin synthase in germinated Mucor mucedo IFO 7684 assessed as incorporation of GlcNAc from [14C]-UDP-GlcNAc into acid-insoluble fractions at 2.61 uM after 60 mins by liquid scintillation counting relative to control
[25] = Binding affinity to chitosan at 6.55 uM after 30 mins by HPLC analysis
[26] = system: Mucor mucedo; assay: Binding affinity to cell wall polysaccharides in Mucor mucedo IFO 7684 at 6.55 uM after 30 mins by HPLC analysis
[27] = system: Mucor mucedo; assay: Antimicrobial activity against Mucor mucedo IFO 7684 after 24 hrs by broth microdilution method in presence of 100 uM of PKA inhibitor H8; assay type: functional; settings: IFO 7684, 24 h
[28] = system: Mucor mucedo; assay: Antimicrobial activity against Mucor mucedo IFO 7684 after 24 hrs by broth microdilution method in presence of 100 uM of PKA activator dbcAMP; assay type: functional; settings: IFO 7684, 24 h
[29] = system: Mucor mucedo; assay: Induction of morphological changes in Mucor mucedo IFO 7684 assessed as thickening of hyphae at 0.026 uM after 24 hrs by microscopic analysis in presence of 100 uM of PKA activator dbcAMP; assay type: functional, organism-based
[30] = system: Mucor mucedo; assay: Effect on cell wall re-generation in Mucor mucedo IFO 7684 spheroplasts under hyperosmotic condition at 0.026 uM after 18 hrs by microscopic analysis; assay type: functional

C=C1NC(=O)[C@H]2CSC(=N2)c2csc(n2)-c2ccc3c(n2)[C@H](C)NC(=O)[C@@H]2CCCN2C(=O)/C(=C/C)NC(=O)CNC(=O)[C@H](CCCNC(=N)N)NC(=O)C(C)(NC(=O)/C(=C/C)NC(=O)C2CSC(=N2)[C@H](CC(N)=O)NC3=O)SC[C@@H](C(=O)O)NC(=O)[C@H]2CSC(=N2)c2csc(n2)-c2csc1n2 [CYCLOTHIAZOMYCIN B1]
Activity [1]: inactive
Activity [2]: inactive
Activity [3]: inactive
Activity [4]: inactive
MIC [5]: 0.25 µg/mL (≈ 0.164 µM)
MIC [6]: 0.031 µg/mL (≈ 0.0203 µM)
MIC [7]: > 1000 µg/mL
MIC [8]: > 1000 µg/mL
MIC [9]: > 1000 µg/mL
Activity [10]: inactive
Activity [11]: inactive
Activity [12]: inactive
Activity [13]: inactive
Activity [14]: inactive
Activity [15]: inactive
Activity [16]: inactive
Activity [17]: inactive
Activity [18]: Active
Activity [19]: Non-toxic
Activity [20]: Non-toxic
Activity [21]: Non-toxic
Activity [22]: inactive
Activity [23]: Active
inhibition [24]: 64%
Activity [25]: inactive
Activity [26]: inactive
MIC [27]: 0.013 µM
MIC [28]: 0.013 µM
Activity [29]: Active
Activity [30]: inactive
